Each structure is given as a SMILES string. Entries after “also recorded” stand apart in the source; their conditions may differ.

In data set [1] the test system is CYP3A. The note with it: cited from earlier work.
Data set [2] has as its system CYP3A. As to the kind of experiment: Study 006 cohort 1: effect of itraconazole. It counts as in vivo, human. The note with it: coadministration of itraconazole vs tezacaftor/ivacaftor alone.
A further data set concerns CFTR. The note with it: major circulating metabolites in humans; cited from earlier work.
Data set [3] concerns CYP3A. Briefly: Study 770-017: effect of ciprofloxacin. It counts as in vivo, human. The note with it: ciprofloxacin 750 mg q12 h with tezacaftor 50 mg q12 h and ivacaftor 150 mg q12 h.
The test system of data set [4] is CYP3A. The note with it: in vitro; cited from earlier work.
Data set [5] has as its target T1, P-gp (Homo sapiens, UniProt P08183). The note with it: ivacaftor alone, digoxin as model P‐gp substrate; cited from earlier work.
The conditions of data set [6]: cited from earlier work; for Food effect on exposure: fat‐containing food vs fasted state.
The conditions of data set [7]: cited from earlier work.
The test system of data set [8] is CYP3A. The note with it: cited from earlier work. The source holds these as a separate data set.
Data set [9] in a line: Steady-state PK of tezacaftor q.d./ivacaftor twice daily in patients with CF. The class given is in vivo. The note with it: human, plasma, oral.
The subject of data set [10] is permeability glycoprotein (P‐gp) efflux transporter. The note with it: ref 3 (tezacaftor), ref 6 (ivacaftor); cited from earlier work.
Data set [11] concerns CYP3A. The note with it: human hepatocytes and recombinant human CYP; no reference given; cited from earlier work.
The target in data set [12] is T1, P-gp. Briefly: Study 006 cohort 2: effect of steady-state tezacaftor/ivacaftor on digoxin. It counts as in vivo. The note with it: for CL renal: both, human, urine and plasma, oral.
For data set [13], the system named is CYP3A. As to the kind of experiment: Study 006 cohort 2: effect of steady-state tezacaftor/ivacaftor on midazolam. The class given is in vivo, human. The note with it: midazolam 2.0 mg single dose with/without TEZ 100 mg q.d./IVA 150 mg q12 h, oral, fed, healthy subjects.
Where [14] appears, read: digoxin with tezacaftor 100 mg q.d./ivacaftor 150 mg q12 h vs digoxin alone.

T1 sequence (P08183 whole entry): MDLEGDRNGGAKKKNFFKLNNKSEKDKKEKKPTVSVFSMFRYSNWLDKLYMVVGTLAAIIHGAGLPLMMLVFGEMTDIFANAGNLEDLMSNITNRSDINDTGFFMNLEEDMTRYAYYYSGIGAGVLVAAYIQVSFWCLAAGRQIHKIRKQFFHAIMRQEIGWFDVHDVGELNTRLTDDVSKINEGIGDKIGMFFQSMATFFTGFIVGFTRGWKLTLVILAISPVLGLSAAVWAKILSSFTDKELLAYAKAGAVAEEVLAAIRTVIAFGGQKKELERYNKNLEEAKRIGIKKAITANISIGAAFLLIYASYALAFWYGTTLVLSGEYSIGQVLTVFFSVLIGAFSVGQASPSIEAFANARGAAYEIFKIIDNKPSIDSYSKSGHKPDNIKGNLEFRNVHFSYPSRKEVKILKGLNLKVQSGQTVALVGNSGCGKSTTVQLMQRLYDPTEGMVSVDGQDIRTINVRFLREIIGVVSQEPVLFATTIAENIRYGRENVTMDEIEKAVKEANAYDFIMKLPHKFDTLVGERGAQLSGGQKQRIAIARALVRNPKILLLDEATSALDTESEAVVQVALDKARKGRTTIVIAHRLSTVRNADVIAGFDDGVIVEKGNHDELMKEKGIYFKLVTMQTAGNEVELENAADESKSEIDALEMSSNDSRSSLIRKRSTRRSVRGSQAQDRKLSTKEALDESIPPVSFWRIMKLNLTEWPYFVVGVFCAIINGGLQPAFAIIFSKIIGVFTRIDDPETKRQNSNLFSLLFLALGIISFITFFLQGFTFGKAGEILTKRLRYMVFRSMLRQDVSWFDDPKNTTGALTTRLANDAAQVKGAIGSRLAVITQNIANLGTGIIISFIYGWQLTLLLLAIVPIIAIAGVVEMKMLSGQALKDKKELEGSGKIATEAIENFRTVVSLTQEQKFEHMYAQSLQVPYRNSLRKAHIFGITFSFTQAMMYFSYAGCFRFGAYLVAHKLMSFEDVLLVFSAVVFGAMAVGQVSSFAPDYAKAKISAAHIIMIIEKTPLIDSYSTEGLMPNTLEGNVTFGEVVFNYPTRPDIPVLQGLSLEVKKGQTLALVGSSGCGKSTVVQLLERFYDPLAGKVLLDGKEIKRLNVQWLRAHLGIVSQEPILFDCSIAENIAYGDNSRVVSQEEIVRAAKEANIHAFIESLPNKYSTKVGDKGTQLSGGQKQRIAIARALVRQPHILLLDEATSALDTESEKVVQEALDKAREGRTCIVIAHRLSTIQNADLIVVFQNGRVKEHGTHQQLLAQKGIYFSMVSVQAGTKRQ

Turning to `Cc1ccc(NC(=O)C2(c3ccc4c(c3)OC(F)(F)O4)CC2)nc1-c1cccc(C(=O)O)c1` [lumacaftor, reference compound], in the data set on CYP3A [1], the CYP3A induction result is listed as “strong inducer of CYP3A”.

For the compound `CC(C)(C)c1cc(C(C)(C)C(=O)O)c(O)cc1NC(=O)c1c[nH]c2ccccc2c1=O` [M6‐IVA], in the data set on CYP3A [2], the “Decrease of AUC with itraconazole” value came to 30%. The “Pharmacological activity/potency relative to parent” value with CFTR is on record as “not considered pharmacologically active”. The “GLSM ratio range for AUC and Cmax with/without ciprofloxacin” value with CYP3A [3] was 0.96−1.10.

One may read the half-life as the time in which the quantity being followed falls by half. For `CC(C)(C)c1cc(C(C)(C)C)c(NC(=O)c2c[nH]c3ccccc3c2=O)cc1O` [ivacaftor], in the data set on CYP3A [4], the “Potential for causing DDIs via CYP3A inhibition or induction” value was “low potential”. In the data set on CYP3A [2], the “Increase of AUC with itraconazole” value was determined as 15.6 fold and the “Increase of Cmax (GLSM ratio) with itraconazole” value (from here on “Increase of Cmax (GLSM ratio)”) is listed as 8.6 fold. Moreover, the “P‐gp inhibition, clinical study” value at P-gp [5] is reported as “weak inhibitor of P‐gp; also recorded: mild P‐gp inhibitor”. Moreover, the “Food effect on exposure” value in data set [6] is recorded as “increased threefold”. Moreover, in data set [7] (oral ivacaftor), the “Eliminated in the feces after metabolic conversion” value is 87.8% and the “Urinary excretion as unchanged drug” value is recorded as “negligible”. For the same compound, in data set [7] (oral ivacaftor, ivacaftor and its metabolites), the “Total radioactivity recovered in the urine” value is listed as 6.6%. Besides, the “CYP3A inhibition, clinical data” value in the data set with CYP3A [8] (ivacaftor alone) is on record as “weak inhibitor of CYP3A”. In the data set with CYP3A [1] (ivacaftor administered with lumacaftor), the “Decrease in exposure with lumacaftor” value is recorded as ~ 80%. Besides, the half-life in [9] was 9.3 h. Moreover, the “P‐gp inhibition in vitro” value in data set [10] is reported as “P‐gp inhibitor in vitro”. Besides, the “Metabolic pathway in vitro” value with CYP3A [11] is listed as “primarily metabolized via CYP3A‐mediated oxidation”.

In the case of `CC(C)(C)c1cc(C(C)(C)CO)c(O)cc1NC(=O)c1c[nH]c2ccccc2c1=O` [M1‐IVA], in the data set with CYP3A [2], the “Increase of AUC with itraconazole” value is 3.6 fold and the “Increase of Cmax (GLSM ratio)” value is recorded as 1.8 fold. Also, the “Pharmacological activity/potency relative to parent” value in the data set with CFTR was “approximately one sixth the potency of ivacaftor”. In addition, in the data set with CYP3A [3], the “GLSM ratio range for AUC and Cmax with/without ciprofloxacin” value is listed as 0.96−1.10.

For `CC1(C)c2cc3cc(NC(=O)C4(c5ccc6c(c5)OC(F)(F)O6)CC4)c(F)cc3n2CC(CO)OC1O` (centres unmarked) [M1‐TEZ], in the data set with CYP3A [2], the “Decrease of AUC with itraconazole” value is recorded as ~ 40% and the “Decrease of Cmax with itraconazole” value was ~ 40%. In addition, the “GLSM ratio range for AUC and Cmax with/without ciprofloxacin” value in the data set with CYP3A [3] is recorded as 1.17–1.25.

For the compound `C[C@H]1O[C@@H](O[C@H]2[C@@H](O)C[C@H](O[C@H]3[C@@H](O)C[C@H](O[C@H]4CC[C@@]5(C)[C@H](CC[C@@H]6[C@@H]5C[C@@H](O)[C@]5(C)[C@@H](C7=CC(=O)OC7)CC[C@]65O)C4)O[C@@H]3C)O[C@@H]2C)C[C@H](O)[C@@H]1O` [Digoxin, digoxin], at P-gp [12], the CL renal is 121 mL/min. The CL renal at P-gp [12] (0.5 mg) was 128 mL/min. At P-gp [12] (setting [14]), the “Increase of AUC with tezacaftor/ivacaftor” value amounted to 30% and the “Increase of Cmax with tezacaftor/ivacaftor” value is listed as 32%.

Consider `CC(C)(CO)c1cc2cc(NC(=O)C3(c4ccc5c(c4)OC(F)(F)O5)CC3)c(F)cc2n1C[C@@H](O)CO` [tezacaftor], for which the “Potential for causing DDIs via CYP3A inhibition or induction” value in the data set with CYP3A [4] is “low potential”. Further, in the data set with CYP3A [2], the “Increase of AUC with itraconazole” value came to 4 fold and the “Increase of Cmax (GLSM ratio)” value is recorded as 2.8 fold. Moreover, the “Dose proportionality of exposure” value in data set [6] (doses ranging from 10−300 mg) was “approximately dose‐proportional”. For the same compound, in data set [6], the “Food effect on exposure” value is on record as “no food effect”. The “Administered dose excreted in urine as unchanged drug” value in data set [7] (oral 14C‐tezacaftor) is reported as “Less than 1%”. In data set [7] (oral 14C‐tezacaftor, mostly as the M2 metabolite), the “Dose recovered in urine” value is given as “about 14%”. For the same compound, the “Dose excreted in the feces” value in data set [7] (oral 14C‐tezacaftor, unchanged or as the M2 metabolite) is 72%. For the same compound, in data set [7] (oral 14C‐tezacaftor, up to 21 days after the dose), the Mean overall recovery is 86%. In data set [9], this compound had a half-life of approximately 156 h. In addition, the “P‐gp inhibition in vitro” value in [10] is “not an inhibitor”. In addition, in the data set with CYP3A [11], the “Metabolic pathway in vitro” value is “primarily metabolized via CYP3A‐mediated oxidation; also recorded: direct glucuronidation as a minor metabolic pathway”.

With `Cc1ncc2n1-c1ccc(Cl)cc1C(c1ccccc1F)=NC2` [Midazolam, midazolam], in the data set with CYP3A [8] (midazolam coadministered with ivacaftor alone), the “Increase of exposure with ivacaftor alone” value is reported as 50%. Further, in the data set with CYP3A [13], the “Effect of TEZ/IVA on PK” value is on record as “↔”; the “GLSM ratio (90% CI) with/without TEZ/IVA, AUC” value was 1.12 (1.01–1.25); the “GLSM ratio (90% CI) with/without TEZ/IVA, Cmax” value is listed as 1.13 (1.01–1.25).

The values are drawn from PMC6510372 (Clinical and Translational Science, 2019).
